Tests used:
PC3 cells = assay: MTT cytotoxicity assay in PC3 cells; assay type: cell-based, human
Method: (§1) Human prostate cancer cell line PC3 and DU145 were procured from the American type culture collection (ATCC). Ovarian cancer A2780 cells were obtained from Prof, Robert Brown, Imperial College London. […] Cells were passed every 3 to 4 days and restarted from frozen stocks upon reaching 20 passages.
(§2) PC3, A2780, or A2780/CP70 cells (2000 cells/well/100 μL) were seeded on a 96-well plate in 100 μL of desired medium and incubated for 24 h. After 24 h, media was removed and fresh media was added. The cells were treated with different constructs at varying concentrations and incubated for 72 h at 37° C. in 5% CO2. The cells were then treated with 20 μL of MTT (5 mg/mL in PBS) for 5 h. The medium was removed, the cells were lysed with 100 μL of DMSO, and the absorbance of the purple formazan was recorded at 550 nm using a Bio-Tek Synergy HT microplate reader. The background absorbance for each well was measured at 800 nm. Each well was performed in triplicate. […] Cells were grown for 7 days in high glucose medium prior to the MTT experiment. Cytotoxicity was expressed as mean percentage increase relative to the unexposed control±SD. Control values were set at 0% cytotoxicity or 100% cell viability.

A2780/CP70 cells [1] = assay: MTT cytotoxicity assay in cisplatin resistant A2780/CP70 cells; assay type: cell-based, human; settings: 72 h
Method: as §1, §2

[2] = test system: mitochondrial respiration of A2780/CP70 cells; assay: MitoStress test, Seahorse XF24 (OCR); assay type: cell-based, human; settings: 1 μM, 24 h
Text: Prior to the assay, XF sensor cartridges were hydrated. […] The parameters calculated included: basal respiration (baseline respiration minus antimycin-A post injection respiration), ATP turnover (baseline respiration minus oligomycin post injection respiration), maximal respiratory capacity (FCCP stimulated respiration minus antimycin-A post injection respiration) and reserve respiratory capacity (FCCP stimulated respiration minus baseline respiration).

[3] = test system: intracellular GSH in A2780/CP70 cells; assay: Cellular GSH assay with ThiolTracker Violet, flow cytometry; assay type: cell-based, human; settings: 10 μM, 12 h
Method: The ability of Platin-B to interact with intracellular GSH in A2780/CP70 cells was investigated using the ThiolTracker Violet GSH detection reagent. Specifically, A2780/CP70 cells (4×10^5 cells/well/2 mL) were plated onto 6 well culture plates and allowed to grow overnight. […] After 12 h, both the attached and detached cells were collected by trypsinization, washed with PBS, and resuspended in Dulbecco's PBS (D-PBS) containing Ca^2+ and Mg^2+, glucose, and sodium pyruvate. The cells were then incubated with 10 μM (final concentration) ThiolTracker Violet for 30 min at 37° C. The cells were then washed with D-PBS, resuspended in buffer, and immediately analyzed on a flow cytometer with 405 nm excitation and 525 nm emission filters. The ThiolTracker Violet stain is a highly thiol reactive fluorescent probe and can be utilized in effective detection of intracellular GSH by quantitative detection modalities such as flow cytometry.

[4] = Cyclic voltammetry, Pt(IV)/Pt(II) reduction potential; assay type: physicochemical; settings: 0.1 M KCl
Method: Redox potential of platinum (IV) prodrugs play important roles in regulating efficacy. The disclosed Pt(IV) prodrugs can be activated selectively by intracellular reduction, preferably at the tumor sites to reduce side effects. Redox potential is a measure of the ability of Pt(IV) compounds to form the active platinum (II) species. Electrochemical measurements on Platin-B were carried out in dimethylformamide (DMF)-phosphate buffered saline (PBS) at pH 6.0 and 7.4. Specifically, a conventional three-electrode set-up comprising a glassy carbon working electrode, platinum wire auxiliary electrode, and Ag/AgCl (3M KCl) reference electrode was used for electrochemical measurements. The electrochemical data were uncorrected for junction potentials. KCl was used as a supporting electrolyte. Platin-B (2 mM) solutions were prepared in 40% DMF phosphate buffered saline (PBS) of pH 6.0 and 7.4 with 0.1 M KCl and voltammograms were recorded at different scan rates.

[5] = test system: citrate synthase activity in A2780/CP70 cells; assay: Citrate synthase activity assay; assay type: cell-based, human; settings: 1 μM, 24 h
Method: Citrate synthase activity assay was performed by following the instruction given in MitoCheck Citrate Synthase Activity assay kit (Cayman item no. 701040). Briefly, A2780/CP70 cells were seeded at a density of 1.2×10^6 cells/7 mL in 25 cm^2 cell culture flask and grown overnight. […] The cells were then scraped in presence of fresh media and centrifuged to obtain the cell pellet. The resultant pellet was washed 2 times with 1×PBS and solubilized in 200 μL extraction buffer. This cell suspension was incubated on ice for 20 min followed by centrifugation at 16000×g for 20 minutes at 4° C. The supernatant was collected and used for measuring the citrate synthase activity after 1:200 dilutions. Protein concentration in the samples was measured using BCA assay. […] Finally 20 μL of the substrate oxaloacetate from tube B was added to each well and absorbance was recorded immediately at 412 nm (50 seconds interval for 30 min at room temperature). The citrate synthase activity was calculated through the kinetic plot obtained from the time (min) vs. optical density (OD=412 nm) using the formula: CS Activity=(ΔA412 min−1/5.712 mM−×0.1 mL/0.03 mL)×sample dilution nmoles/min/mL. […]

GST enzyme = assay: GST enzymatic substrate competitive assay / cellular GST activity assay; assay type: biochemical; settings: 50 or 100 μM, in buffer or A2780/CP70 cell lysates
Method: GST enzyme modulates GSH to attack on labile electrophilic halide containing molecules in cellular detoxification processes. […] GST enzymatic activity was evaluated by following the formation of GSH and 1-chloro-2,4-dinitrobenzene (CDNB) adduct.
This assay was performed according to the instruction given by the manufacturer (GST activity assay kit ab65326). AU the standard solutions were prepared as per the instruction. Samples were prepared in a total 50 μL volume with GST assay buffer, including a negative control with 50 μL of GST assay buffer only and a positive control (10 μL of GST positive control diluted to 1:50) and 40 μL of GST assay buffer only. Sample wells contained 10 μL of GST enzyme diluted to 1:50 and remaining of GST assay buffer. To each well, 5 μL GSH was added. 50 μL of substrate mix containing GST substrate CDNB (5 μL) was prepared. […] Then, 50 μL of substrate mix was added to each well including controls. The plate was stirred carefully to initiate the reaction and absorbance values were recorded once every minute at 340 nm using a plate reader to obtain 20 data points. GST activity was calculated through the kinetic plot obtained from the time (min) vs. optical density (OD340 nm) using the formula GST activity=ΔA340 min^−1/0.002777 μM·D/A, where D is the enzyme sample dilution factor and A is the enzyme sample volume added to each well. […]

A2780/CP70 cells [6] = assay: Apoptosis detection by Annexin V-PI assay; assay type: cell-based, human; settings: 50 μM, 12 h
Method: Enhanced activity of Platin-B in A2780/CP70 cells was further confirmed by Annexin-V-propidium iodide (PI) apoptosis-necrosis assay. […] The cells were trypsinized, repeatedly washed collecting the supernatants, and centrifuged at 754×g for 3 min, and the supernatants were collected. Cell density was determined and cells were resuspended in 1× annexinV-binding buffer to 1×10^6 cells/mL preparing a sufficient volume to have 100 μL per assay. To 100 μL of cell suspension, 5 μL ALEXA FLUOR™ 488 annexin V and 1 μL of 100 μg/mL PI working solution were added, incubated for 15 min at room temperature. After the incubation period, 400 μL of 1× annexin-binding buffer was added to each sample, samples were gently mixed keeping the samples on ice, and the samples were analyzed on the flow cytometer immediately.

| Structure (SMILES) | IC50 (PC3 cells; Homo sapiens, PC-3, 72 h) [µM] | IC50 (A2780/CP70 cells [1]; Homo sapiens) [µM] | IC50 (PC3 cells; 72 h) [µM] | IC50 (A2780/CP70 cells [1]) [µM] | effect on mitochondrial respiration (OCR) [2] | effect on intracellular GSH levels [3] | Pt(IV)/Pt(II) couple reduction potential ([4]; pH 6.0, 40% DMF-PBS) | Pt(IV)/Pt(II) couple reduction potential ([4]; pH 7.4, 40% DMF-PBS) | mitochondrial content by citrate synthase activity [5] | GSH conjugation catalyzed by GST (GST enzyme) | sensitivity of resistant cells (Annexin V-PI apoptosis-necrosis) (A2780/CP70 cells [6]) |
| --- | --- | --- | --- | --- | --- | --- | --- | --- | --- | --- | --- |
| O=C(O)CCCCCBr [6-BH, 6-bromohexanoic acid] | > 100 | > 100 | – | – | – | – | – | – | – | – | – |
| N.N.[Cl][Pt][Cl] [Cisplatin, cis-diamminedichloridoplatinum(II), reference compound] | – | – | 14.4 ± 1.6 | 14.7 ± 0.9 | did not demonstrate such activities | minimal effect | – | – | – | – | – |
| [NH2][Pt]([NH2])([Cl])([Cl])([O]C(=O)CCCCCBr)[O]C(=O)CCCCCBr [Platin-B] | – | – | – | – | inhibited mitochondrial respiration significantly | enhanced ability to reduce GSH levels | ~−0.187 V vs. normal hydrogen electrode (NHE) | ~−0.217 V vs. normal hydrogen electrode (NHE) | lower mitochondrial content | more efficient | high degree of sensitivity |

Reference: US10457700B2, “Platinum prodrugs and methods of making and using thereof” (UNIVERSITY OF GEORGIA RESEARCH FOUNDATION, INC., priority 2015, dated 2019)
